# Assays:
# [1] = test system: U-2 OS cells; assay: Colony outgrowth assay (clonogenic survival), wild-type vs BRCA2 siRNA depleted; assay type: cell-based, human; conditions: 14 days
# Description: Activity of SNS-595 in these assays was evaluated by clonogenic survival and compared with doxorubicin. The following protocol was used for the assay:
# 1. 200,000 cells were plated in each of 2 wells in a 6-well plate, and incubated over night at 37° C. and 5% CO2 atmosphere.
# A: Test: 50 μL of 2 μM siBRCA2 (si Genome SMARTpool, Dharmacon)+150 μL OptiMEM (Gibco)
# B: Control (no siRNA): 200 μL OptiMEM
# C: 2 μL DharmaFect 1 (Dharmacon)+198 μL OptiMEM
# 2. Reagents were allowed to stand at room temperature for 5 minutes.
# 3. Reagents A+C and B+C were mixed and allowed to stand at room temperature for 20 min.
# 4. The media in wells was replaced with 1.6 mL of antibiotic-free media (DMEM, Gibco).
# 5. 400 μL of reagents A+B or B+C were added and mixed in wells. The plate was incubated at 37° C.
# 1. After 24 hr of siRNA treatment, cells were trypsinized and counted.
# 2. Cells were plated in 100 mm dishes at 500 or 1000 cells/dish in 10 mL media and incubated for 4 hr.
# 3. After 4 hr, test substances were added and plates were incubated for 14 days.
# 1. The plates were harvested and cells were fixed in methylene blue (4g/L in methanol) and colonies containing more than 50 cells were counted.
# [2] = test system: SPD8 cells; assay: Recombination assay: cloning efficiency; assay type: cell-based, Chinese hamster; conditions: SNS-595 2 μM, doxorubicin 0.5 μM; for cloning efficiency: alone, 4 hr treatment; for effect of aphidicolin (S-phase blocker) co-treatment on cytotoxicity: co-treatment with aphidicolin 0.5 μM
# Excerpt: (§1) The SPD8 cell line carries a spontaneously derived mutation in the hprt gene and was isolated as a 6-thioguanine (6TG) resistant clone from the V79 Chinese hamster fibroblast cell line. The mutation within the hprt gene is a tandem duplication of exon 7, intron 6, and the 3′ portion of exon 6 that results in expression of a non-functional HPRT protein (Darè et al., Somat Cell Mol Genet, 1996, 22:201-210; and Helleday et al., J Mol Biol, 1998, 279(4):687-694). This duplication can be lost through HR that revert the hprt gene to wild-type, which can be selected for in HAsT (50 μM hypoxanthine, 10 μM L-azaserine, 5 μM thymidine) (Helleday et al. 1998). The DMEM was supplemented with 6TG (5 μg/mL) in order to kill cells that undergo spontaneous reversion. The addition of 6TG at this concentration affects neither the growth rate of these mutants nor the recombination assay procedure.
# (§2) Each flask (75 cm^2) was inoculated with 1.5×10^6 SPD8 cells 24 hr prior to treatment with SNS-595 (2 μM) or doxorubicin (0.5 μM) and in co-treatment with aphidicolin (0.5 μM). After 4 hr of treatment, flasks were rinsed twice with PBS and 20 mL DMEM was added. Cells were then incubated for 48 hr to recover before plating onto Petri dishes. Cloning efficiency was measured by plating 500 cells in 10 mL of medium, two Petri dishes per dose. HPRT+ revertants were selected for by plating 3×10^5 cells/dish in the presence of HAsT (50 μM hypoxanthine,10 μM L-azaserine, 5μM thymidine), three dishes per dose. After 7 and 10 days, respectively, the plates were harvested and the colonies were fixed and stained using methylene blue in methanol (4 g/L). Colonies containing more than 50 cells were counted.
# [3] = test system: VC8-B2 cells (complemented for functional BRCA2); assay: Growth inhibition (proliferation) assay in BRCA2 complemented cells; assay type: cell-based, Chinese hamster; conditions: Cricetulus griseus; VC8-B2 cells expressing functional BRCA2; 4 hr treatment, 120 hr incubation, resazurin
# Description: (§3) The VC8 and VC8-B2 cell lines originate from V79 Chinese hamster […] fibroblast cells. VC8 has a mutation in the brca2 gene and VC8-B2 is this cell line complemented with the human chromosome 13 (containing the brca2 gene; […] Zwet et al., Mol Cell Biol, 2002, 22(2):669-679). The influence of BRCA2 on sensitivity to SNS-595 was evaluated by a proliferation assay in Chinese hamster cells mutant (VC8) and complemented for functional BRCA2 (VC8-B2). […] The following protocol was used for the assay: 1. 4000 cells/well were plated in a 96-well plate such that half of the plate contained VC8 cells, and other half contained VC8-B2 cells. The last column was left cell-free as background control. 2. The plate was incubated at 37° C. with 5% CO2. 1. The media was removed and 50 μL of fresh media was added into each well. 2. […] 3. 100 μL from the first column was transferred into second column and mixed. 100 μL from the second column was transferred into third column and mixed and so on until end of plate. One column was left untreated. The plate was incubated at 37° C. with 5% CO2. […] After 4 hr treatment, plate was washed twice with 100 μL PBS and 250 μL media was added. The plate was incubated at 37° C. with 5% CO2. 1. After 120 hr incubation, the plate was washed with 100 μL PBS and 100 μL resaszurin (10 μg/mL in phenol red-free complete DMEM) was added. 2.
# [4] = test system: VC8 cells (BRCA2 mutant); assay: Growth inhibition (proliferation) assay in BRCA2 mutant cells; assay type: cell-based, Chinese hamster; conditions: for IC50: Cricetulus griseus, V-C8, VC8 cells mutant for BRCA2, 4 hr treatment, 120 hr incubation, resazurin; for increase in sensitivity in cells mutant for BRCA2 as compared to cells expressing functional BRCA2: VC8 vs VC8-B2, ratio of IC50
# Description: as §3
# [5] = test system: SPD8 cells (hprt gene reversion by homologous recombination); assay: Recombination assay: HPRT mutation reversion frequency; assay type: cell-based, Chinese hamster; conditions: for reversion frequency: alone, SNS-595 2 μM, doxorubicin 0.5 μM, 4 hr treatment; for effect of S-phase block (aphidicolin co-treatment) on induced reversion rate / recombination events: co-treatment with aphidicolin 0.5 μM
# Excerpt: as §1, §2
# [6] = test system: SPD8 cells; assay: Pulsed field gel electrophoresis (PFGE) of DNA fragments; assay type: cell-based, Chinese hamster
# Excerpt: as §1
# Two million (2×10^6) SPD8 cells were seeded in flasks (75 cm^2) and incubated overnight. Subsequently, cells were treated with SNS-595 (20 μM) or doxorubicin (3 μM) and in co-treatment with aphidicolin (3 μM) for 4 hr before being melted into agarose insert (1×10^6 cells/70 μL 1% InCert Agarose, BMA). Inserts were transferred to 0.5 M EDTA, 1% N-laurylsarcosyl and proteinase K (1 mg/mL) and incubated at 50° C. for 48 hr and thereafter washed four times in TE-buffer (2 hr between each wash) prior to loading onto an agarose separation gel (1% Chromosomal grade agarose, Bio-Rad). Separation was performed on a CHEF DR III system (BioRad; 120° field angle, 240 seconds switch time, 4 V/cm) for 18 hr or for 24 hours with 60 to 240 seconds switch time. The gel was stained with ethidium bromide for 5 hr and subsequently analyzed by scanning fluorescence reader (Molecular Imager FX, BioRad) using Quantative One software.
Structure (SMILES),sensitivity of U-2 OS cells depleted for BRCA2 using siRNA relative to wild-type cells [1] [×],cloning efficiency [2],effect of aphidicolin (S-phase blocker) co-treatment on cytotoxicity [2],IC50 [3] [nM],IC50 [4] [nM],increase in sensitivity in cells mutant for BRCA2 as compared to cells expressing functional BRCA2 [4],reversion frequency [5],effect of S-phase block (aphidicolin co-treatment) on induced reversion rate / recombination events [5],"production of small DNA fragments ([6]; FIG. 5 and 6, SNS-595 20 μM, doxorubicin 3 μM, 4 hr, PFGE 18 hr and 24 hr runs)","production of small DNA fragments ([6]; FIG. 7, 18 hr PFGE run, 240 seconds switch time)","production of small DNA fragments ([6]; FIG. 8, 24 hr PFGE run, 60 to 240 seconds switch time)"
"CN[C@H]1CN(c2ccc3c(=O)c(C(=O)O)cn(-c4nccs4)c3n2)C[C@@H]1OC [SNS-595, (+)-1,4-dihydro-7-[(3S,4S)-3-methoxy-4-(methylamino)-1-pyrrolidinyl]-4-oxo-1-(2-thiazolyl)-1,8-naphthyridine-3-carboxylic acid]",4.6,significantly impaired,reduction in cytotoxicity,720,140,approximately 5 fold,increased,no effect,,,
COc1cccc2c1C(=O)c1c(O)c3c(c(O)c1C2=O)C[C@@](O)(C(=O)CO)C[C@@H]3O[C@H]1C[C@H](N)[C@H](O)[C@H](C)O1 [doxorubicin],,significantly impaired,reduction in cytotoxicity,190,50,approximately 4 fold,increased,significantly reduced,more small DNA fragments,more small DNA fragments,more small DNA fragments
